# Experimental data reported in paper PMC12066179, “Naphthyl-Substituted Ruthenium(II)–Arene Complexes: Exploring the Impact of Binding Modes on Cytotoxicity in Cancer and Normal Cell Lines” (Bioinorganic Chemistry and Applications, 2025).
# How the values were obtained:
# [1] = system: MCF-7 (breast cancer) cell line; test: MTT cell viability assay, MCF-7; assay type: cell-based
# Protocol: (§1) The MTT assay, which is based on the reduction of 3-(4,5-dimethylthiazol-2-yl)-2,5-diphenyltetrazolium bromide to a purple formazan product, was performed to estimate cell viability and growth. To determine the appropriate dose and time, we performed the MTT assay in HepG2, MCF-7, Caco-2, and Vero cell lines. Cell suspensions of […] cell lines were first prepared at densities of 1 × 10^4/mL cells per well of 96-well culture dishes and plated in triplicate. Cells were then incubated with the complexes (2.5, 5, 10, 25, and 50 μM) for 24 and 48 h. After the treatment using the complexes, a 10 μL MTT (Glentham Life Sciences, GC4568) solution was added to each well, followed by incubation for 4 h at 37°C in 5% CO2. The medium was then discarded, and 50 μL DMSO was added to each well to dissolve the formazan crystals. The absorbance was immediately measured at 540 nm using a UV-visible spectrophotometer multiplate reader.
# [2] = system: Caco-2 (colorectal cancer) cell line; test: MTT cell viability assay, Caco-2; assay type: cell-based
# Protocol: as §1
# [3] = system: HepG2 (liver cancer) cell line; test: MTT cell viability assay, HepG2; assay type: cell-based
# Protocol: as §1
# [4] = system: Vero (normal kidney) cell line; test: MTT cell viability assay, Vero; assay type: cell-based; details: for IC50: MTT
# Protocol: as §1
# FS-DNA = FS-DNA binding by UV-Vis titration; details: complex 0–15 μM, 20 mM Tris-HCl/NaCl buffer pH 7.2
# Protocol: To investigate these interactions, UV-Vis analyses were performed on complexes Ru1-3 (0–15 μM) in 20 mM Tris-HCl/NaCl buffer (pH 7.2) containing 0.1 mM FS-DNA. The corresponding absorption spectra are provided in the supporting information. Aromatic naphthyl groups are known for their ability to intercalate between DNA base pairs. […] While Ru1 is a cationic complex with a high capacity for hydrogen bonding, potentially facilitating ionic interactions with DNA, its overall interaction was weaker compared to the other complexes.
# UV-visible spectroscopy was employed to investigate the interaction between […] and Ru1-3. Different concentrations of Ru1-3 (0–15 μM) were titrated against a fixed concentration of FS-DNA ([…]) to monitor changes in absorbance at 260 nm. The analysis of these titration data allowed for the determination of the binding constant (Kb) using the following equation:(1) 1/A−A0=1/Amax−A0+1/C×1/KbAmax−A0, where A is the absorbance of FS-DNA at a specific concentration with increasing complex concentration, A0 is the absorbance of FS-DNA without complex, Amax is the absorbance of the FS-DNA complex at the final state, and C is the complex concentration.
smiles,measurement,setting,value
Cc1ccc(C(C)C)cc1.Cc1ccc(S(=O)(=O)[N](CCNc2cccc3ccccc23)[Ru][Cl])cc1 [Ru2],IC50,[1]; 24 h exposure,2.81 µM
same,IC50,[1]; 48 h exposure,8.75 µM
same,IC50,[2]; 24 h exposure,1.39 µM
same,IC50,[2]; 48 h exposure,3.39 µM
same,IC50,[3]; 24 h exposure,4.72 µM
same,IC50,[3]; 48 h exposure,8.8 µM
same,Cytotoxic activity in Vero healthy cell line,"[4]; 50–2.5 μM, 24 h and 48 h",did not manifest any cytotoxic activity at concentrations other than 50 μM
same,IC50,[4]; 24 h exposure,7.8 µM
same,IC50,[4]; 48 h exposure,38.3 µM
same,Binding constant (Kb) with FS-DNA,FS-DNA,22700 M⁻¹
